From patent US11690828B2, “Treatment of CNS diseases with sGC stimulators” (Cyclerion Therapeutics, Inc., priority 2016, dated 2023)

Tests used:
[1] = tested on: male Long Evans rats; test: Novel Object Recognition (NOR) test, MK-801-induced memory deficit; format: in vivo, rat
[2] = Rat cerebrospinal fluid (CSF) pharmacokinetic properties; format: in vivo; settings: male, Sprague-Dawley; for concentration at 1 h: CSF, PO 10 mg/kg in PEG400, 1 h post-dosing, read-out: CSF Conc (nM @ 1 h); for Kp uu at 1 h: PO 10 mg/kg, unbound CSF / unbound plasma
Procedure: PK in rats was determined following oral dosing. For the oral (PO) experiments, a group of 6 male Sprague-Dawley rats with an indwelling catheter placed in the cisterna magna were used. The PO group was dosed with 3 or 10 mg/kg of a compound formulated as a solution in PEG400. PO doses were administered by oral gavage and delivered to the stomach using a syringe and gavage tube. Following oral dosage administration, the gavage tube was flushed with approximately 0.5 mL of water to ensure complete delivery of the full dose.
Plasma and CSF samples were collected as follows: samples of CSF and blood were collected at 1 hour and 2 hours post-dosing. CSF samples (0.05 mL) were collected through the intracisternal catheter. Blood samples (0.25 mL) were collected through retro-orbital sampling. These samples were kept on ice until processed for plasma. Blood samples were centrifuged at 3200 rpm for 5 minutes at approximately 5° C. within 1 hour of collection. Plasma was directly transferred to a 96-well plate tube (0.125 mL). Plug caps were placed on the tubes and the tubes frozen at approximately −70° C. and stored until analysis.
Plasma was collected and analyzed for the presence of compound.
The compound in question and the internal standard were extracted from plasma and CSF by precipitation. Samples were analyzed using liquid chromatography (LC) with tandem mass spectrometric detection (MS/MS) using electrospray ionization. The standard curve range was from 1 to 1000 ng/mL.
Kp,uu is defined as the concentration ratio of unbound drug in CSF to unbound drug in plasma. Unbound drug in plasma (or free plasma concentration) is calculated by multiplying the total plasma concentration by the unbound fraction as determined by plasma protein binding. The CSF concentration is then divided by the free plasma concentration to determine the Kp,uu. (See e.g., Di et al., J. Med. Chem., 56, 2-12 (2013)).

[3] = tested on: sGC; test: cGMP neuronal cell-based assay; settings: rat primary hippocampal neurons; 30 μM DETA-NO; 50% of high control (10 μM Compound Y); read-out: sGC-neuron Abs EC50
Procedure: Rat primary neurons were isolated from fetuses of 18-day pregnant Sprague-Dawley females. The fetuses were collected in Hanks' balanced salt solution (HBSS) and brains were rapidly removed. The cerebral hippocampi were isolated and mechanically fragmented. Further tissue digestion was performed with 0.25% (wt/vol) trypsin solution in HBSS without Ca2+ and Mg2+ for 15 min at 37° C. After trypsination, cells were washed and resuspended in neurobasal medium supplemented with 0.5 mM L-glutamine, 12.5 uM glutamic acid, 2% B-27 and 100 U/mL penicillin, and 100 μg/mL streptomycin. Cells were plated at a density of 4×10^4 cells/well in a poly-D-lysine coated 384-well flat clear-bottom plate (Corning Cat No 354662). Cells were incubated 6-7 days at 37° C. in a humidified chamber with 5% CO2. Media was removed and cells were washed 1× with HBSS containing Ca2+ and Mg2+, and replaced with 40 uL HBSS containing 0.5 mM IBMX, and incubated for 15 minutes at 37° C. 10 uL of a 5× stock of test compounds with diethylenetriamine NONOate (DETA-NO) was added. Final concentration of DETA-NO was 30 μM. Cells were incubated for 20 min at 37° C. Medium was removed, 50 uL of ice-cold 10% acetic acid was added, and incubated for 60 minutes at 4° C. Following centrifugation at 4° C. for 5 minutes at 1000×g to pellet cell debris, the supernatant was aspirated to a clean plate and the samples were analyzed for cGMP content. cGMP concentrations were determined from each sample using LC-MS/MS.
Data were normalized to a high control using the following equation: 100*(Sample−Low Control)/(High Control−Low Control), where the low control is the average of 15 samples treated with 1% DMSO, and the high control is the average of 15 samples treated with 10 μM of the known sGC stimulator Compound Y (depicted in Example 2). Data were fit using a 4-parameter fit (log(agonist) vs. response—variable slope) using GraphPad Prism Software v.5. n=2 for all compounds. […]

[4] = tested on: rats; test: Bennett model - paw pressure test; format: in vivo, rat; settings: internal reference Morphine 3 mg/kg s.c.
Procedure: (§1) Paw Pressure Test. Static mechanical hyperalgesia is measured. This test requires the application of an increasing pressure on the hind paws between a flat surface and a blunt pointer. To evaluate the analgesic action of a compound, one hind paw of the animal was inflamed by an injection or injured by ligation, while the other hind paw was not injured or inflamed. The apparatus exerted a steadily increasing force on the hind paws. The reaction threshold was determined as the pressure (g) required to elicit paw withdrawal and/or vocalization. The animals were gently handled by the experimenter and static mechanical hyperalgesia were assessed two times for both hind paws.
Bennett Model. Peripheral mononeuropathy was induced by loose ligation of the sciatic nerve in anesthetized rats (Xylazine 10 mg/kg i.p., ketamine 60 mg/kg i.p.) on D−14. Briefly, the common sciatic nerve was exposed at the level of the middle of the thigh by blunt dissection through the biceps femoris. Proximal to the sciatic trifurcation, four ligatures were loosely tied around it with about 1-mm spacing. […]
Testing: 120 minutes after treatment. […] Results are expressed for each group as a percentage of activity calculated from the mean value of the vehicle-treated animals and compared to naïve animals, control paw, or cut-off value, depending on the test.

[5] = tested on: rats; test: Brennan model - electronic Von Frey test; format: in vivo, rat; settings: internal reference Morphine 4 mg/kg s.c.
Excerpt: Brennan Model. Surgery: Surgery was done under gas anesthesia (2.5% isoflurane/3 L/min). For all rats, the plantar aspect of the left hind paw was exposed and a 1 cm longitudinal incision was made using a surgical blade, through the skin and fascia of the plantar aspect of the foot, starting 0.5 cm from the proximal edge of the heel and extending toward the toes. The plantaris muscle was elevated and incised longitudinally whereas the insertions remained intact. After hemostasis with gentle pressure, the skin was stitched up with two sutures. After surgery, animals recovered in their cages.
Electronic Von Frey Test. Tactile allodynia was assessed using the electronic Von Frey test 24 h after surgery. The test requires the application of an increasing pressure onto the plantar aspect of the hind paws. The apparatus exerted a steady force on the hind paws. Reaction thresholds were determined as the pressure (g) required to elicit paw withdrawal. Each reaction threshold measurement was repeated three times for both hind paws with intervals of approximately 2 to 3 mins.
(§2) Testing: 120 minutes after treatment. N=4/model/test. Results are expressed for each group as a percentage of activity calculated from the mean value of the vehicle-treated animals and compared to naïve animals, control paw, or cut-off value, depending on the test.

[6] = tested on: Healthy rats; test: Healthy rats - tail flick test; format: in vivo, rat; settings: internal reference Morphine 4 mg/kg s.c.
Procedure: Tail Flick Test. A radiant heat was applied on the tail. When the rat felt discomfort, it reacted by a sudden tail movement (tail flick) which automatically stopped the stimulation and the timer for the measurement by the animal reaction time or nociceptive reaction latency (period from the beginning of the stimulation until detection of the response of the animal). A cut-off was previously fixed at 10 sec in order to prevent tissue damage.
as §2

[7] = tested on: rats; test: Formalin test - score; format: in vivo, rat; settings: internal reference Morphine 4 mg/kg s.c.
Procedure: Formalin Test. 2.5% formalin solution was injected by subplantar route into the right hind paw. Scoring of pain behavior was performed in rats for 36 minutes every 3 minutes according to the following scores:
0=normal behavior of the injected hind limb to support the body
1=slight touching of the injected paw on the floor to lightly support or not support the body
2=total withdrawal of the injected paw
3=licking, biting or shaking of the injected paw.
as §2

[8] = tested on: Healthy rats; test: Healthy rats - paw pressure test; format: in vivo, rat; settings: internal reference Morphine 4 mg/kg s.c.
Procedure: as §1, §2

[9] = tested on: rats; test: Kaolin - gait score; format: in vivo, rat; settings: internal reference Indomethacin 10 mg/kg p.o.
Procedure: Kaolin. Induction: In rats, unilateral arthritis was induced by an intra-articular injection of a 10% kaolin suspension into the knee joint of the right hind paw under gas anesthesia (3.5% isoflurane/3 L/min). Gait score: The gait score will be evaluated 3 h 30 min after kaolin administration by:
2: intermittent raising of the paw
as §2

[10] = tested on: rats; test: Carrageenan - paw pressure test; format: in vivo, rat; settings: internal reference Indomethacin 30 mg/kg p.o.
Procedure: as §1
Carrageenan. Induction: Three hours before assessment of the nociceptive threshold using the paw pressure test 100 μL of a 2% carrageenan suspension was injected into the plantar aspect of the right hind paw. The Paw Pressure test was then conducted as described above.
as §2

Structure (SMILES): C[C@]12N[C@H](Cc3ccccc31)c1ccccc12 [MK-801, MK-801 (Dizocilpine), reference compound]
- Effect on recognition memory, 0-3 minute time range ([1]; MK-801 0.1 mg/kg): strong memory deficit
- Effect on recognition memory, 0-5 minute time range ([1]; MK-801 0.1 mg/kg): strong memory deficit
- Recognition Index, Mean (0 to 3 minute time bin) ([1]; Vehicle + MK-801 0.1 mg/kg IP, Vehicle + Saline control 73.78): 56.92%

Structure (SMILES): Cc1ncc(Cc2nc(-c3nc(C(F)(F)F)n[nH]3)n3ccccc23)cn1 [Compound I-4]
- concentration at 1 h [2]: 180 nM
- Kp uu at 1 h [2]: 0.96

Structure (SMILES): Fc1ccccc1Cc1nc(-c2nc(C(F)(F)F)n[nH]2)c2cccnn12 [Compound I-6]
- concentration at 1 h [2]: 0.78 nM
- Kp uu at 1 h [2]: < 0.01

Structure (SMILES): Fc1ccccc1Cc1nc(-c2nc(C(F)(F)F)n[nH]2)n2ccccc12 [Compound I-3]
- EC50 [3]: ≤ 100 nM

Structure (SMILES): CN1CC[C@]23c4c5ccc(O)c4O[C@H]2[C@@H](O)C=C[C@H]3[C@H]1C5 [Morphine, reference compound]
- % of activity vs. vehicle, Bennett model paw pressure test [4]: 191%
- % of activity vs. vehicle, Brennan model electronic Von Frey test [5]: 88%
- % of activity vs. vehicle, healthy rats tail flick test [6]: 66%
- % of activity vs. vehicle, formalin test score (early phase) [7]: 57%
- % of activity vs. vehicle, formalin test score (late phase) [7]: 38%
- % of activity vs. vehicle, healthy rats paw pressure test [8]: 69%

Structure (SMILES): COc1ccc2c3c1O[C@H]1C[C@@H](O)C=C[C@@]31CCN(C)C2 [Galantamine, reference compound]
- Recognition Index, Mean (0 to 3 minute time bin) ([1]; Galantamine 1 mg/kg IP + MK-801 0.1 mg/kg IP): 73.33%

Structure (SMILES): COc1ccc2c(c1)c(CC(=O)O)c(C)n2C(=O)c1ccc(Cl)cc1 [Indomethacin, reference compound]
- % of activity vs. vehicle, kaolin gait score [9]: 58%
- % of activity vs. vehicle, carrageenan paw pressure test [10]: 100%
